Assays:
Assay type in all cases: cell-based, human
HS 578T = assay: NCI60 screening, Breast Cancer, HS 578T
UACC-257 = assay: NCI60 screening, Melanoma, UACC-257
NCI-H522 = assay: NCI60 screening, Non-Small Cell Lung Cancer, NCI-H522
SNB-75 = assay: NCI60 screening, CNS Cancer, SNB-75
U251 = assay: NCI60 screening, CNS Cancer, U251
SF-268 = assay: NCI60 screening, CNS Cancer, SF-268
SNB-19 = assay: NCI60 screening, CNS Cancer, SNB-19
MCF7 = assay: NCI60 screening, Breast Cancer, MCF7
HT29 = assay: NCI60 screening, Colon Cancer, HT29
RPMl-8226 = assay: NCI60 screening, Leukemia, RPMl-8226
SR = assay: NCI60 screening, Leukemia, SR
M14 = assay: NCI60 screening, Melanoma, M14
CCRF-CEM = assay: NCI60 screening, Leukemia, CCRF-CEM
UACC-62 = assay: NCI60 screening, Melanoma, UACC-62
HOP-92 = assay: NCI60 screening, Non-Small Cell Lung Cancer, HOP-92
LOX IMVI = assay: NCI60 screening, Melanoma, LOX IMVI
U0-31 = assay: NCI60 screening, Renal Cancer, U0-31
ACHN = assay: NCI60 screening, Renal Cancer, ACHN
[1] = Homo sapiens, read-out: LC50 (the source's name)

`Cc1ccc2c(c1)c(CO)cn2S(=O)(=O)c1ccc(Cl)c([N+](=O)[O-])c1` [OSU-A9M, [1-(4-chloro-3-nitro-benzenesulfonyl)-5-methyl-1H-indol-3-yl]-methanol] was tested, and the TGI (HS 578T) was 3.05E−6, the GI50 (HS 578T; Homo sapiens) was 1020 nM and the CC50 (HS 578T; [1]) was 9110 nM. The “Percent Growth” value (HS 578T; Log10 Concentration −4.0) was −63%, the “Percent Growth” value (HS 578T; Log10 Concentration −5.0) was −54% and the “Percent Growth” value (HS 578T; Log10 Concentration −6.0) was 51%. For the same molecule, the “Percent Growth” value (HS 578T; Log10 Concentration −7.0) was 88%, the “Percent Growth” value (HS 578T; Log10 Concentration −8.0) was 83% and the TGI (UACC-257) was 3.31E−6. The GI50 (UACC-257; Homo sapiens) was 1720 nM, the CC50 (UACC-257; [1]) was 6400 nM and the “Percent Growth” value (UACC-257; Log10 Concentration −4.0) was −96%. For the same molecule, the “Percent Growth” value (UACC-257; Log10 Concentration −5.0) was −84%, the “Percent Growth” value (UACC-257; Log10 Concentration −6.0) was 91% and the “Percent Growth” value (UACC-257; Log10 Concentration −7.0) was 94%. For the same molecule, the “Percent Growth” value (UACC-257; Log10 Concentration −8.0) was 96%, the TGI (NCI-H522) was 3.54E−7 and the GI50 (NCI-H522; Homo sapiens) was 145 nM. For the same molecule, the CC50 (NCI-H522; [1]) was 861 nM, the “Percent Growth” value (NCI-H522; Log10 Concentration −4.0) was −96% and the “Percent Growth” value (NCI-H522; Log10 Concentration −5.0) was −96%. For the same molecule, the “Percent Growth” value (NCI-H522; Log10 Concentration −6.0) was −58%, the “Percent Growth” value (NCI-H522; Log10 Concentration −7.0) was 71% and the “Percent Growth” value (NCI-H522; Log10 Concentration −8.0) was 77%. For the same molecule, the TGI (SNB-75) was 2.70E−6, the GI50 (SNB-75; Homo sapiens) was 1400 nM and the LC50 (SNB-75; Homo sapiens) was 5190 nM. The “Percent Growth” value (SNB-75; Log10 Concentration −4.0) was −100%, the “Percent Growth” value (SNB-75; Log10 Concentration −5.0) was −100% and the “Percent Growth” value (SNB-75; Log10 Concentration −6.0) was 76%. The “Percent Growth” value (SNB-75; Log10 Concentration −7.0) was 83%, the “Percent Growth” value (SNB-75; Log10 Concentration −8.0) was 108% and the TGI (U251) was 2.91E−6. The GI50 (U251; Homo sapiens, U-251) was 1570 nM, the CC50 (U251; Homo sapiens, U-251, read-out: LC50 (the source's name)) was 5400 nM and the “Percent Growth” value (U251; Log10 Concentration −4.0) was −100%. The “Percent Growth” value (U251; Log10 Concentration −5.0) was −100%, the “Percent Growth” value (U251; Log10 Concentration −6.0) was 87% and the “Percent Growth” value (U251; Log10 Concentration −7.0) was 87%. For the same molecule, the “Percent Growth” value (U251; Log10 Concentration −8.0) was 90%, the TGI (SF-268) was 3.01E−6 and the GI50 (SF-268; Homo sapiens) was 1650 nM. The CC50 (SF-268; [1]) was 5490 nM, the “Percent Growth” value (SF-268; Log10 Concentration −4.0) was −100% and the “Percent Growth” value (SF-268; Log10 Concentration −5.0) was −100%. For the same molecule, the “Percent Growth” value (SF-268; Log10 Concentration −6.0) was 92%, the “Percent Growth” value (SF-268; Log10 Concentration −7.0) was 89% and the “Percent Growth” value (SF-268; Log10 Concentration −8.0) was 86%. It also gave a TGI (SNB-19) of 2.97E−6, a GI50 (SNB-19; Homo sapiens) of 1620 nM and a CC50 (SNB-19; [1]) of 5450 nM. The “Percent Growth” value (SNB-19; Log10 Concentration −4.0) was −100%, the “Percent Growth” value (SNB-19; Log10 Concentration −5.0) was −100% and the “Percent Growth” value (SNB-19; Log10 Concentration −6.0) was 90%. For the same molecule, the “Percent Growth” value (SNB-19; Log10 Concentration −7.0) was 86%, the “Percent Growth” value (SNB-19; Log10 Concentration −8.0) was 88% and the TGI (MCF7) was 2.21E−6. For the same molecule, the GI50 (MCF7; Homo sapiens) was 582 nM, the CC50 (MCF7; [1]) was 6090 nM and the “Percent Growth” value (MCF7; Log10 Concentration −4.0) was −82%. For the same molecule, the “Percent Growth” value (MCF7; Log10 Concentration −5.0) was −75%, the “Percent Growth” value (MCF7; Log10 Concentration −6.0) was 39% and the “Percent Growth” value (MCF7; Log10 Concentration −7.0) was 85%. The “Percent Growth” value (MCF7; Log10 Concentration −8.0) was 84%, the TGI (HT29) was 1.59E−6 and the GI50 (HT29; Homo sapiens, HT-29) was 434 nM. For the same molecule, the CC50 (HT29; Homo sapiens, HT-29, read-out: LC50 (the source's name)) was 3980 nM, the “Percent Growth” value (HT29; Log10 Concentration −4.0) was −100% and the “Percent Growth” value (HT29; Log10 Concentration −5.0) was −100%. For the same molecule, the “Percent Growth” value (HT29; Log10 Concentration −6.0) was 25%, the “Percent Growth” value (HT29; Log10 Concentration −7.0) was 94% and the “Percent Growth” value (HT29; Log10 Concentration −8.0) was 91%. For the same molecule, the TGI (RPMl-8226) was 3.80E−6, the GI50 (RPMl-8226; Homo sapiens) was 1580 nM and the CC50 (RPMl-8226; [1]) was 9140 nM. For the same molecule, the “Percent Growth” value (RPMl-8226; Log10 Concentration −4.0) was −68%, the “Percent Growth” value (RPMl-8226; Log10 Concentration −5.0) was −55% and the “Percent Growth” value (RPMl-8226; Log10 Concentration −6.0) was 76%. For the same molecule, the “Percent Growth” value (RPMl-8226; Log10 Concentration −7.0) was 84%, the “Percent Growth” value (RPMl-8226; Log10 Concentration −8.0) was 93% and the TGI (SR) was 2.47E−6. For the same molecule, the GI50 (SR; Homo sapiens) was 371 nM, the CC50 (SR; [1]) was > 100000 nM and the “Percent Growth” value (SR; Log10 Concentration −4.0) was −46%. For the same molecule, the “Percent Growth” value (SR; Log10 Concentration −5.0) was −25%, the “Percent Growth” value (SR; Log10 Concentration −6.0) was 16% and the “Percent Growth” value (SR; Log10 Concentration −7.0) was 94%. The “Percent Growth” value (SR; Log10 Concentration −8.0) was 85%, the TGI (M14) was 2.88E−6 and the GI50 (M14; Homo sapiens) was 1520 nM. For the same molecule, the CC50 (M14; [1]) was 5430 nM, the “Percent Growth” value (M14; Log10 Concentration −4.0) was −100% and the “Percent Growth” value (M14; Log10 Concentration −5.0) was −98%. The “Percent Growth” value (M14; Log10 Concentration −6.0) was 83%, the “Percent Growth” value (M14; Log10 Concentration −7.0) was 97% and the “Percent Growth” value (M14; Log10 Concentration −8.0) was 95%. The TGI (CCRF-CEM) was 2.58E−6, the GI50 (CCRF-CEM; Homo sapiens) was 300 nM and the CC50 (CCRF-CEM; [1]) was 87400 nM. The “Percent Growth” value (CCRF-CEM; Log10 Concentration −4.0) was −52%, the “Percent Growth” value (CCRF-CEM; Log10 Concentration −5.0) was −21% and the “Percent Growth” value (CCRF-CEM; Log10 Concentration −6.0) was 14%. For the same molecule, the “Percent Growth” value (CCRF-CEM; Log10 Concentration −7.0) was 82%, the “Percent Growth” value (CCRF-CEM; Log10 Concentration −8.0) was 84% and the TGI (UACC-62) was 3.19E−6. For the same molecule, the GI50 (UACC-62; Homo sapiens) was 1670 nM, the CC50 (UACC-62; [1]) was 6070 nM and the “Percent Growth” value (UACC-62; Log10 Concentration −4.0) was −93%. For the same molecule, the “Percent Growth” value (UACC-62; Log10 Concentration −5.0) was −89%, the “Percent Growth” value (UACC-62; Log10 Concentration −6.0) was 90% and the “Percent Growth” value (UACC-62; Log10 Concentration −7.0) was 91%. The “Percent Growth” value (UACC-62; Log10 Concentration −8.0) was 93%, the TGI (HOP-92) was 2.67E−6 and the GI50 (HOP-92; Homo sapiens) was 1310 nM. The CC50 (HOP-92; [1]) was 5430 nM, the “Percent Growth” value (HOP-92; Log10 Concentration −4.0) was −97% and the “Percent Growth” value (HOP-92; Log10 Concentration −5.0) was −93%. The “Percent Growth” value (HOP-92; Log10 Concentration −6.0) was 69%, the “Percent Growth” value (HOP-92; Log10 Concentration −7.0) was 76% and the “Percent Growth” value (HOP-92; Log10 Concentration −8.0) was 92%. The TGI (LOX IMVI) was 2.86E−7, the GI50 (LOX IMVI; Homo sapiens) was 138 nM and the CC50 (LOX IMVI; [1]) was 594 nM. For the same molecule, the “Percent Growth” value (LOX IMVI; Log10 Concentration −4.0) was −100%, the “Percent Growth” value (LOX IMVI; Log10 Concentration −5.0) was −100% and the “Percent Growth” value (LOX IMVI; Log10 Concentration −6.0) was −86%. For the same molecule, the “Percent Growth” value (LOX IMVI; Log10 Concentration −7.0) was 72%, the “Percent Growth” value (LOX IMVI; Log10 Concentration −8.0) was 84% and the TGI (U0-31) was 3.46E−6. For the same molecule, the GI50 (U0-31; Homo sapiens) was 1830 nM, the CC50 (U0-31; [1]) was 6540 nM and the “Percent Growth” value (U0-31; Log10 Concentration −4.0) was −100%. For the same molecule, the “Percent Growth” value (U0-31; Log10 Concentration −5.0) was −83%, the “Percent Growth” value (U0-31; Log10 Concentration −6.0) was 97% and the “Percent Growth” value (U0-31; Log10 Concentration −7.0) was 98%. The “Percent Growth” value (U0-31; Log10 Concentration −8.0) was 87%, the TGI (ACHN) was 3.14E−6 and the GI50 (ACHN; Homo sapiens) was 1760 nM. For the same molecule, the CC50 (ACHN; [1]) was 5600 nM, the “Percent Growth” value (ACHN; Log10 Concentration −4.0) was −100% and the “Percent Growth” value (ACHN; Log10 Concentration −5.0) was −100%. For the same molecule, the “Percent Growth” value (ACHN; Log10 Concentration −6.0) was 99%, the “Percent Growth” value (ACHN; Log10 Concentration −7.0) was 93% and the “Percent Growth” value (ACHN; Log10 Concentration −8.0) was 98%.

— US8680133B2, “Alkyl indole-3-carbinol-derived antitumor agents” (The Ohio State University Research Foundation, priority 2009, dated 2014)
